Measured values reported in PubChem BioAssay AID2060896 (Molecular Pharmacology Branch, DTP, NCI, 2025).

Test system: 941728-121-R-J1-PDC complex spheroid viability
Assay: Anticancer human tumor 941728-121-R-J1-PDC patient-derived lung adenocarcinoma cell line growth inhibition [RAS]
Settings: for IC50: curve of first compound; for viability, T/C: stronger effect = lower value
In short: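 Multi-cell-type spheroids: tumor cells plus HUVEC endothelial cells and mesenchymal stem cells. RAS-pathway inhibitors were combined with targeted agents, each dosed in half-log steps down from clinical Cmax, or from 10 microM when Cmax was unknown.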

[1] = second compound 0.00316 µM, first compound 0.0316 µM
[2] = second compound 0.00316 µM, first compound 0.1 µM
[3] = second compound 0.00316 µM, first compound 0.316 µM
[4] = second compound 0.00316 µM, first compound 1 µM
[5] = second compound 0.00316 µM, first compound 3.16 µM
[6] = second compound 0.00316 µM, first compound 10 µM
[7] = second compound 0.01 µM, first compound 0.0316 µM
[8] = second compound 0.01 µM, first compound 0.1 µM
[9] = second compound 0.01 µM, first compound 0.316 µM
[10] = second compound 0.01 µM, first compound 1 µM
[11] = second compound 0.01 µM, first compound 3.16 µM
[12] = second compound 0.01 µM, first compound 10 µM
[13] = second compound 0.0316 µM, first compound 0.0316 µM
[14] = second compound 0.0316 µM, first compound 0.1 µM
[15] = second compound 0.0316 µM, first compound 0.316 µM
[16] = second compound 0.0316 µM, first compound 1 µM
[17] = second compound 0.0316 µM, first compound 3.16 µM
[18] = second compound 0.0316 µM, first compound 10 µM
[19] = second compound 0.1 µM, first compound 0.0316 µM
[20] = second compound 0.1 µM, first compound 0.1 µM
[21] = second compound 0.1 µM, first compound 0.316 µM
[22] = second compound 0.1 µM, first compound 1 µM
[23] = second compound 0.1 µM, first compound 3.16 µM
[24] = second compound 0.1 µM, first compound 10 µM
[25] = second compound 0.316 µM, first compound 0.0316 µM
[26] = second compound 0.316 µM, first compound 0.1 µM
[27] = second compound 0.316 µM, first compound 0.316 µM
[28] = second compound 0.316 µM, first compound 1 µM
[29] = second compound 0.316 µM, first compound 3.16 µM
[30] = second compound 0.316 µM, first compound 10 µM
[31] = second compound 1 µM, first compound 0.0316 µM
[32] = second compound 1 µM, first compound 0.1 µM
[33] = second compound 1 µM, first compound 0.316 µM
[34] = second compound 1 µM, first compound 1 µM
[35] = second compound 1 µM, first compound 3.16 µM
[36] = second compound 1 µM, first compound 10 µM
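Note: spheroids exposed to compounds for 7 days before readout.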
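Throughout, for viability, T/C: 100% = DMSO vehicle control viability.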

CC1(O)CCCC1n1c(=O)c(C(F)F)cc2cnc(NC3CCN(S(C)(=O)=O)CC3)nc21 (stereo unspecified) + C=CC(=O)N1CCN(c2nc(OCC3CCCN3C)nc3c(F)c(-c4nc(N)cc(C)c4C(F)(F)F)c(Cl)cc23)C(C)C1
IC50 (second compound 0.00316 µM): < 31.6 nM
IC50 (second compound 0.01 µM): < 31.6 nM
IC50 (second compound 0.0316 µM): < 31.6 nM
IC50 (second compound 0.1 µM): < 31.6 nM
IC50 (second compound 0.316 µM): < 31.6 nM
IC50 (second compound 1 µM): < 31.6 nM
viability, T/C [1]: 21.1%
viability, T/C [2]: 22.3%
viability, T/C [3]: 21.8%
viability, T/C [4]: 24.1%
viability, T/C [5]: 21.9%
viability, T/C [6]: 23.6%
viability, T/C [7]: 18.8%
viability, T/C [8]: 25.2%
viability, T/C [9]: 19.6%
viability, T/C [10]: 21.8%
viability, T/C [11]: 23%
viability, T/C [12]: 26.5%
viability, T/C [13]: 18%
viability, T/C [14]: 17.9%
viability, T/C [15]: 21.4%
viability, T/C [16]: 19.1%
viability, T/C [17]: 20.3%
viability, T/C [18]: 23.1%
viability, T/C [19]: 20.1%
viability, T/C [20]: 18.7%
viability, T/C [21]: 20.1%
viability, T/C [22]: 22.8%
viability, T/C [23]: 21.8%
viability, T/C [24]: 24.6%
viability, T/C [25]: 21.1%
viability, T/C [26]: 19.9%
viability, T/C [27]: 21.4%
viability, T/C [28]: 22.1%
viability, T/C [29]: 21.6%
viability, T/C [30]: 28.1%
viability, T/C [31]: 21.1%
viability, T/C [32]: 19.7%
viability, T/C [33]: 26.4%
viability, T/C [34]: 21.9%
viability, T/C [35]: 24.1%
viability, T/C [36]: 33.4%

CCN1CCN(Cc2ccc(Nc3ncc(F)c(-c4cc(F)c5nc(C)n(C(C)C)c5c4)n3)nc2)CC1 + C=CC(=O)N1CCN(c2nc(OCC3CCCN3C)nc3c(F)c(-c4nc(N)cc(C)c4C(F)(F)F)c(Cl)cc23)C(C)C1
IC50 (second compound 0.00316 µM): < 3.16 nM
IC50 (second compound 0.01 µM): < 3.16 nM
IC50 (second compound 0.0316 µM): < 3.16 nM
IC50 (second compound 0.1 µM): < 3.16 nM
IC50 (second compound 0.316 µM): < 3.16 nM
IC50 (second compound 1 µM): < 3.16 nM
viability, T/C (second compound 0.00316 µM, first compound 0.00316 µM): 21.3%
viability, T/C (second compound 0.00316 µM, first compound 0.01 µM): 18.4%
viability, T/C [1]: 18.1%
viability, T/C [2]: 20.8%
viability, T/C [3]: 15.6%
viability, T/C [4]: 15.6%
viability, T/C (second compound 0.01 µM, first compound 0.00316 µM): 20.1%
viability, T/C (second compound 0.01 µM, first compound 0.01 µM): 18.5%
viability, T/C [7]: 17.5%
viability, T/C [8]: 15.9%
viability, T/C [9]: 13.1%
viability, T/C [10]: 12.6%
viability, T/C (second compound 0.0316 µM, first compound 0.00316 µM): 18.4%
viability, T/C (second compound 0.0316 µM, first compound 0.01 µM): 20.1%
viability, T/C [13]: 14.6%
viability, T/C [14]: 13.5%
viability, T/C [15]: 13.8%
viability, T/C [16]: 15.1%
viability, T/C (second compound 0.1 µM, first compound 0.00316 µM): 18.8%
viability, T/C (second compound 0.1 µM, first compound 0.01 µM): 19%
viability, T/C [19]: 18.6%
viability, T/C [20]: 15.8%
viability, T/C [21]: 14.4%
viability, T/C [22]: 13.5%
viability, T/C (second compound 0.316 µM, first compound 0.00316 µM): 18%
viability, T/C (second compound 0.316 µM, first compound 0.01 µM): 17.4%
viability, T/C [25]: 18.5%
viability, T/C [26]: 17.3%
viability, T/C [27]: 13.2%
viability, T/C [28]: 13.9%
viability, T/C (second compound 1 µM, first compound 0.00316 µM): 21.6%
viability, T/C (second compound 1 µM, first compound 0.01 µM): 18.8%
viability, T/C [31]: 20.6%
viability, T/C [32]: 16.5%
viability, T/C [33]: 14.7%
viability, T/C [34]: 13.2%

C[C@@H](NC(=O)c1ncnc(N)c1Cl)c1ncc(C(=O)Nc2cc(C(F)(F)F)c(Cl)cn2)s1 + C=CC(=O)N1CCN(c2nc(OCC3CCCN3C)nc3c(F)c(-c4nc(N)cc(C)c4C(F)(F)F)c(Cl)cc23)C(C)C1
IC50 (second compound 0.00316 µM): < 31.6 nM
IC50 (second compound 0.01 µM): < 31.6 nM
IC50 (second compound 0.0316 µM): < 31.6 nM
IC50 (second compound 0.1 µM): < 31.6 nM
IC50 (second compound 0.316 µM): < 31.6 nM
IC50 (second compound 1 µM): < 31.6 nM
viability, T/C [1]: 21.6%
viability, T/C [2]: 21%
viability, T/C [3]: 21.2%
viability, T/C [4]: 25.4%
viability, T/C [5]: 23.1%
viability, T/C [6]: 20.7%
viability, T/C [7]: 26.2%
viability, T/C [8]: 23.9%
viability, T/C [9]: 23.3%
viability, T/C [10]: 27.1%
viability, T/C [11]: 20.5%
viability, T/C [12]: 20.2%
viability, T/C [13]: 22.3%
viability, T/C [14]: 22%
viability, T/C [15]: 20.9%
viability, T/C [16]: 22%
viability, T/C [17]: 23.5%
viability, T/C [18]: 20.4%
viability, T/C [19]: 26.8%
viability, T/C [20]: 24.9%
viability, T/C [21]: 22.5%
viability, T/C [22]: 23.1%
viability, T/C [23]: 21.9%
viability, T/C [24]: 20.9%
viability, T/C [25]: 20.1%
viability, T/C [26]: 20.9%
viability, T/C [27]: 21%
viability, T/C [28]: 21.6%
viability, T/C [29]: 24.9%
viability, T/C [30]: 22.2%
viability, T/C [31]: 23.4%
viability, T/C [32]: 30.2%
viability, T/C [33]: 22.1%
viability, T/C [34]: 22.5%
viability, T/C [35]: 27.3%
viability, T/C [36]: 22.4%
